In US20230000842A1, “METHODS OF TREATING CARTILAGE DISORDERS THROUGH INHIBITION OF CLK AND DYRK” (SAMUMED, LLC, priority 2019, published 2023):

How the values were obtained:
[1] = tested on: nuclear speckles in hMSCs and chondrocytes; assay: Nuclear speckles assay (phospho-SC35 immunofluorescence); assay type: cell-based, human; details: 30 nM, 100 nM, 6 hrs, compared to DMSO
Text: Cells were stained with phospho-SC35 antibody (green) or DAPI nuclear stain (blue).
After approximately 6 hrs, cells were fixed and stained with a phospho-SC35 antibody (Santa Cruz Biotechnology), followed by an Alexa-Fluor 488 secondary antibody (Thermo Fisher) and DAPI (Thermo Fisher). Cells were imaged at 100× magnification using the EVOS FL (Life Technologies, Carlsbad, Calif.).

[2] = tested on: NF-κB pathway gene expression in THP1 cells; assay: qRT-PCR of NF-κB pathway components in THP1 cells stimulated with LPS; assay type: cell-based
Description: Fold change relative to unstimulated control is shown (n=3, Mean±95% CI, *p<0.05, **p<0.01, ***p<0.001, one-way ANOVA).
Total RNA was isolated using a RNAeasy kit (Qiagen) as per the manufacturer's protocol. cDNA was synthesized using the iScript cDNA Synthesis Kit (Bio-Rad). Quantitative real-time PCR was performed using the CFX384 (Bio-Rad) using gene specific SYBR-green or TaqMan™ primers. Relative gene expression was determined by normalizing to housekeeping genes using the ΔΔCt method. Data was collected from at least 3 replicates per assay.

[3] = tested on: cartilage of MIA injected rats; assay: Monosodium iodoacetate (MIA) injection induced OA model, cartilage Western blot; assay type: in vivo, rat; details: 4 days after single IA injection
Description: Western blots for phospho-SRSF, SRSF1, AXIN2, phospho-NF-κB, total NFκB, phospho-STAT3, total STAT3, phospho-FOXO1 and total FOXO1 in the cartilage, with β-actin as a loading control.
Male Sprague Dawley (SD) rats (250 g±30 g) (Charles River, Wilmington, Mass.) were used for all animal studies. All animals were treatment naïve at the start of the studies. Procedures were performed during the hours of 8 am-5 pm on weekdays in a sterile hood in the vivarium. Rats were housed in individual ventilated cages (≤3 per cage) under the following conditions:
For cytokine, MMP, histology (H&E and Safranin O-Fast Green staining), OARSI scores and weight bearing measurements: At 10 weeks postnatal age, 20 rats were subjected to MIA injection (3 mg in 50 μL). Each rat was anesthetized with an isoflurane/O2 mixture until the flexor withdrawal reflex was abolished. The surgeon wore a face mask, hair net, lab coat and shoe covers, and gloves that were disinfected with betadine or chlorhexidine between animals. All tools were sterilized with an autoclave. MIA was dissolved in 0.9% (w/v) saline (3 mg in 50 μL). The solution was filtrated with 0.22 μm membrane before administration. After being shaved and disinfected with betadine or chlorhexidine solution, the right knees were injected intra-articularly with 50 μL of MIA using 0.5-in 26-gauge needle, while the contralateral knees received an IA injection of 0.9% saline. After injection, the injected surface was washed with sterile saline solution. All the rats were allowed to move freely in plastic cages until their necropsies at different time points post-MIA injection.
On day 11, animals were sacrificed using Carbon dioxide (CO2). Cartilage was isolated, flash frozen in liquid Nitrogen and stored at −80° C. until processing for protein extraction.

CC(C)CC(=O)Nc1cncc(-c2ccc3[nH]nc(-c4nc5c(-c6cccc(F)c6)cncc5[nH]4)c3c2)c1 [compound 123]
nuclear speckles (spliceosome modulation) [1]: enlargement of nuclear speckles | LPS-stimulated gene expression of NF-κB components (RELA, RELB) [2]: inhibited | NF-κB inhibitors (NFKBIA, NFKBIB, IKKβ, IKKγ) expression [2]: without effects | expression of NF-κB pathway genes (NFKB1, NFKB2, RELA, RELB and BCL3) [2]: inhibited | protein levels of total FOXO1 [3]: increased | protein levels of total NF-κB [3]: decreased | total protein levels of SRSF1 and STAT3 [3]: no changes | phosphorylation of SRSF, NF-κB, STAT3, and FOXO1 ([3]; compared to vehicle): decreased
